From PubChem BioAssay (NCI)
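Protocol summary: plate cells (96-well), add compound at 5 concentrations, incubate 48 h, interpolate endpoints linearly. TGI marks complete inhibition of growth.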

Assays:
Assay in all cases: growth of human tumour cells (NCI), 48 h
[1] = test system: UO-31 renal
[2] = test system: HCC-2998 colon
[3] = test system: A549 NSCLC
[4] = test system: KM12 colon
[5] = test system: M14 melanoma
[6] = test system: OVCAR-3 ovarian
[7] = test system: MOLT-4 leukemia
[8] = test system: DLD-1 colon
[9] = test system: SW-620 colon
[10] = test system: NCI-H522 lung
[11] = test system: TK-10 renal
[12] = test system: NCI-H226 lung
[13] = test system: NCI-H460 lung
[14] = test system: SNB-19 CNS
[15] = test system: DMS 273 small cell lung
[16] = test system: OVCAR-8 ovarian
[17] = test system: SF-268 CNS
[18] = test system: SK-MEL-28 melanoma
[19] = test system: HOP-92 NSCLC
[20] = test system: CAKI-1 renal
[21] = test system: LOX IMVI melanoma
[22] = test system: A498 renal
[23] = test system: HCT-15 colon
[24] = test system: UACC-257 melanoma
[25] = test system: KM20L2 colon
[26] = test system: HT29 colon
[27] = test system: CCRF-CEM leukemia
[28] = test system: SN12C renal
[29] = test system: DMS 114 small cell lung
[30] = test system: HOP-18 NSCLC
[31] = test system: SR leukemia
[32] = test system: IGROV1 ovarian
[33] = test system: RPMI-8226 leukemia
[34] = test system: SNB-78 CNS
[35] = test system: K-562 leukemia
[36] = test system: HL-60(TB) leukemia
[37] = test system: RXF 393 renal
[38] = test system: HCT-116 colon
[39] = test system: OVCAR-5 ovarian
[40] = test system: M19-MEL melanoma
[41] = test system: UACC-62 melanoma
[42] = test system: SF-295 CNS
[43] = test system: U251 CNS
[44] = test system: LXFL 529 NSCLC
[45] = test system: COLO 205 colon
[46] = test system: NCI-H23 lung
[47] = test system: SF-539 CNS
[48] = test system: SK-MEL-5 melanoma
[49] = test system: SK-OV-3 ovarian
[50] = test system: EKVX NSCLC
[51] = test system: SK-MEL-2 melanoma
[52] = test system: RXF-631 renal
[53] = test system: 786-0 renal
[54] = test system: HOP-62 NSCLC
[55] = test system: MALME-3M melanoma
[56] = test system: OVCAR-4 ovarian
[57] = test system: SNB-75 CNS
[58] = test system: ACHN renal
[59] = test system: XF 498 CNS

Measured: TGI

CC(=O)NNc1nc(C)c(C(=O)/C=C/c2cccc([N+](=O)[O-])c2)s1
not listed: [56] | [57] | [58] | [59]
> 100 µM: all other assays above

CC1=C(c2cc(C(=O)Nc3cc(C)ccc3C)nc(N)n2)Sc2ccccc2N1
not listed: [59]
> 100 µM: all other assays above

COC(=O)C1=C(C(=O)OC)C2(CCCCCC2=O)OC1=O (configuration not stated)
not listed: [1] | [8] | [21] | [30] | [31]
> 100 µM: all other assays above
